# Assays:
# [1] = Assay B: Microsomal clearance; format: in vitro ADME, human; settings: pooled liver microsomes 1 mg/ml, test compound 1 μM, 37° C., NADPH; clearance as % of hepatic blood flow
# Procedure: Assay B: Microsomal Clearance:
# The metabolic degradation of the test compound is assayed at 37° C. with pooled liver microsomes. The final incubation volume of 100 μl per time point contains TRIS buffer pH 7.6 at RT (0.1 M), magnesium chloride (5 mM), microsomal protein (1 mg/ml) and the test compound at a final concentration of 1 μM.
# Following a short preincubation period at 37° C., the reactions are initiated by addition of beta-nicotinamide adenine dinucleotide phosphate, reduced form (NADPH, 1 mM) and terminated by transferring an aliquot into solvent after different time points (0, 5, 15, 30, 60 min). Additionally, the NADPH-independent degradation is monitored in incubations without NADPH, terminated at the last time point. The [%] remaining test compound after NADPH independent incubation is reflected by the parameter c (control) (metabolic stability). The quenched incubations are pelleted by centrifugation (10000 g, 5 min).
# An aliquot of the supernatant is assayed by LC-MS/MS for the amount of parent compound. The half-life (t½ INVITRO) is determined by the slope of the semilogarithmic plot of the concentration-time profile.
# The intrinsic clearance (CL_[…]) is calculated by considering the amount of protein in the incubation: CL_[…] [μl/min/mg protein]=(Ln 2/(half-life [min]*protein content [mg/ml]))*1000 CL_[…]_INVIVO [ml/min/kg]=(CL_[…] [μL/min/mg protein]×MPPGL [mg protein/g liver]×liver factor [g/kg bodyweight])/1000 Qh [%]=CL [ml/min/kg]/hepatic blood flow [ml/min/kg])
# (§1) Hepatocellularity, human: 120×10e6 cells/g liver
# (§2) Liver factor, human: 25.7 g/kg bodyweight
# (§3) Blood flow, human: 21 ml/(min×kg)
# human TRPA1 ion channel = biological target: T1, human TRPA1 ion channel (Homo sapiens, UniProt O75762); experiment: Assay A: TRPA1 assay (FLIPRtetra, AITC-induced intracellular calcium); format: cell-based; settings: HEK293 cell line over-expressing human TRPA1, AITC agonism (final 10 μM), AUC of calcium signal, read-out: hTRPA1 IC50
# T1 construct: host or cells: HEK293
# Procedure: A human HEK293 cell line over-expressing the human TRPA1 ion channel (Perkin Elmer, Product No. AX-004-PCL) is used as a test system for compound efficacy and potency. Compound activity is determined by measuring the effect of compounds on intracellular calcium concentration induced by AITC (Allylisothiocyanat) agonism in a FLIPRtetra system (Molecular Devices).
# The cells are obtained as frozen cells in cryo-vials and stored until use at −150° C.
# Cells are grown in culture medium (MEM/EBSS medium with 10% FCS and 0.4 mg/ML Geneticin). […] For sub-culturing cells are detached from flasks by Versene. At the day before the assay, cells are detached, washed twice with medium (MEM/EBSS medium with 10% FCS) and 20000 cells in 20 μl/well are seeded to Poly D-Lysin biocoated 384-well plates (black, clear bottom, Cat. 356697) from Corning. Plates are incubated for 24 hours at 37° C./5% C02 before use in the assay.
# The test compounds are dissolved in 100% DMSO at a concentration of 10 mM and in a first step diluted in DMSO to a concentration of 5 mM, followed by serial dilution steps in 100% DMSO. Dilution factor and number of dilution steps may vary according to needs. Typically 8 different concentrations by 1:5 dilutions are prepared, further intermediate dilutions (1:20) of the substances are carried out with HBSS/HEPES buffer (1×HEPES, Cat. 14065 from Gibco, 20 mM HEPES, Cat. 83264 from SIGMA, 0.1% BSA Cat. 11926 from Invitrogen, pH 7.4
# At the assay day cells are washed 3× with assay puffer, 20 μL buffer remaining in the wells after washing. 10 μL Ca6 kit (Cat. R8191 Molecular Devices) loading buffer in HBSS/HEPES is added to the cells and the plates are incubated with lid for 120 minutes at 37°/5% CO2. 10 μL of compound or controls in HBSS/HEPES buffer/5% DMSO from the intermediate dilution plate are carefully added to the wells. […] Finally 10 μL of the agonist AITC 50 μM dissolved in HBSS/HEPES buffer/0.05% DMSO (final concentration 10 μM) is added to the wells followed by an additional read on the FLIPRtetra device for 10 minutes. The area under the signal curve (AUC) after AITC addition is used for IC50/% inhibition calculations
# Data Evaluation and Calculation:
# Each assay microtiter plate contains wells with vehicle (1% DMSO) controls instead of compound as controls for AITC induced luminescence (100% CTL; high controls) and is wells with vehicle controls without AITC as controls for non-specific changes in luminescence (0% CTL; low controls).
# The analysis of the data is performed by the calculation of the area under signal curve of the individual wells. Based on this values the % value for the measurement of each substance concentration is calculated (AUC(sample)−AUC(low))*100/(AUC(high)−AUC(low)) using MegaLab software (in house development). The IC50 values are calculated from the % control values using MegaLab software. Calculation: [y=(ad)/(1+(x/c)^b)+d], a=low value, d=high value; x=conc M; c=IC50 M; b=hill; y=% ctrl
# [2] = Assay C: Hepatocyte clearance; format: in vitro ADME, human; settings: cryopreserved hepatocyte suspension, test compound 1 μM, up to 6 h; predicted clearance as % of hepatic blood flow
# Procedure: Assay C: Hepatocyte Clearance
# The metabolic degradation of the test compound is assayed in a hepatocyte suspension. Hepatocytes (cryopreserved) are incubated in Dulbecco's modified eagle medium (supplemented with 3.5 μg glucagon/500 mL, 2.5 mg insulin/500 mL and 3.75 mg/500 mL hydrocortison) containing 5% or 50% species serum.
# The cells are incubated for six hours (incubator, orbital shaker) and samples (25 μl) are taken at 0, 0.5, 1, 2, 4 and 6 hours. Samples are transferred into acetonitrile and pelleted by centrifugation (5 min). The supernatant is transferred to a new 96-deepwell plate, evaporated under nitrogen and resuspended.
# Decline of parent compound is analyzed by HPLC-MS/MS
# CLint is calculated as follows CL_[…]=Dose/AUC=(CO/CD)/(AUD+clast/k)×1000/60. CO: initial concentration in the incubation [P M], CD: cell density of vital cells [10e6 cells/mL], AUD: area under the data [μM×h], clast: concentration of last data point [μM], k: slope of the regression line for parent decline [h−1].
# The calculated in vitro hepatic intrinsic clearance can be scaled up to the intrinsic in vivo hepatic Clearance and used to predict hepatic in vivo blood clearance (CL) by the use of a liver model (well stirred model). CL_[…]_INVIVO [ml/min/kg]=(CL_[…] [μL/min/10e6 cells]×hepatocellularity [10e6 cells/g liver]×liver factor [g/kg bodyweight])/1000 CL [ml/min/kg]=CL_[…]_INVIVO [ml/min/kg]×hepatic blood flow [ml/min/kg]/(CL_[…]_INVIVO [ml/min/kg]+hepatic blood flow [ml/min/kg]) Qh [%]=CL [ml/min/kg]/hepatic blood flow [ml/min/kg])
# as §1, §2, §3
# T1 sequence (O75762 whole entry): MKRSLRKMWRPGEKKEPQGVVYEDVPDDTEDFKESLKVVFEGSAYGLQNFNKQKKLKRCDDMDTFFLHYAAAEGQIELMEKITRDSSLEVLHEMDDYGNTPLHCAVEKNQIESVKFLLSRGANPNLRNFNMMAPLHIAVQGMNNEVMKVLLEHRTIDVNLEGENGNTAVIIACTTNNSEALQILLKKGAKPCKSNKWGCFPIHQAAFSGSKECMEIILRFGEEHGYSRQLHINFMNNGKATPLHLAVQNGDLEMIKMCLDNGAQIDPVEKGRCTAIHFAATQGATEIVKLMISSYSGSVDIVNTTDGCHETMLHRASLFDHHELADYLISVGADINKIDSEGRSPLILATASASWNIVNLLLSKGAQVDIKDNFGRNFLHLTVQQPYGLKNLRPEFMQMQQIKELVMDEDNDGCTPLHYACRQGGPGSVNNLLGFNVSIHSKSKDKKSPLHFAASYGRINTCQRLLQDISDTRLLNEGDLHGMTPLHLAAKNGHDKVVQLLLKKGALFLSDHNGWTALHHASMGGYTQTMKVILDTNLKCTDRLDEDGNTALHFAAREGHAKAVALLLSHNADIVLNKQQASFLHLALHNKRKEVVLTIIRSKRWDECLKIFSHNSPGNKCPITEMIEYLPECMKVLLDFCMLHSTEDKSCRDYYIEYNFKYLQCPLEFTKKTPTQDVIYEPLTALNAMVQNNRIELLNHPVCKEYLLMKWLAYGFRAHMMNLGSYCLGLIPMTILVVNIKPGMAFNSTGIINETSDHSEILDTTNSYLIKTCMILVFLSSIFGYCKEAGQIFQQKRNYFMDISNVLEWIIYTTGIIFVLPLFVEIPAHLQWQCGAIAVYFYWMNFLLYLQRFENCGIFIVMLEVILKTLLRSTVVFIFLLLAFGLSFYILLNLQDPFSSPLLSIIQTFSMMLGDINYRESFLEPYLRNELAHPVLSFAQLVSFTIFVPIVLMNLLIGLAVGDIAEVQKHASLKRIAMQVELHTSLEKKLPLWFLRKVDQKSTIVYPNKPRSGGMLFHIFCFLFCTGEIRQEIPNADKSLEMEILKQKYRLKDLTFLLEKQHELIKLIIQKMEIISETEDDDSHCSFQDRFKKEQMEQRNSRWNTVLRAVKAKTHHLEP
Compound,human LM [% Qh] [1],IC50 (human TRPA1 ion channel),human Hepatocytes [% Qh] [2]
CN1C(=O)COc2ncn(Cc3nnn(C[C@H](O)c4ccc(C#N)s4)n3)c(=O)c21 [Example 16],<23 % Qh,237 nM,<4 % Qh
C[C@@H]1Oc2ncn(Cc3nnn(C[C@H](O)c4ccc(Cl)cc4)n3)c(=O)c2N(C)C1=O [Example 24],<23 % Qh,100 nM,16 % Qh
CN1C(=O)COc2ncn(Cc3nnn(C[C@H](O)c4cc5cccc(F)c5o4)n3)c(=O)c21 [Example 18],<23 % Qh,153 nM,8 % Qh
CN1C(=O)COc2ncn(Cc3nnn(C[C@H](O)c4cc5cc(Cl)ccc5o4)n3)c(=O)c21 [Example 4],<23 % Qh,32 nM,31 % Qh
CN1C(=O)COc2ncn(Cc3nnn(C[C@H](O)c4ccc(Br)cc4)n3)c(=O)c21 [Example 8],<23 % Qh,62 nM,11 % Qh
"CN1C(=O)COc2ncn(Cc3nnn(C[C@H](O)c4ccc(Cl)cc4)n3)c(=O)c21 [Example 1, 3-({2-[(2R)-2-(4-chlorophenyl)-2-hydroxyethyl]-2H-1,2,3,4-tetrazol-5-yl}methyl)-5-methyl-3H,4H,5H,6H,7H-pyrimido[4,5-b][1,4]oxazine-4,6-dione]",<23 % Qh,53 nM,7 % Qh
CN1C(=O)CCc2ncn(Cc3nnn(C[C@H](O)c4ccc(Cl)cc4)n3)c(=O)c21 [Example 20],<23 % Qh,140 nM,<4 % Qh
Cc1ccc([C@@H](O)Cn2nnc(Cn3cnc4c(c3=O)N(C)C(=O)CO4)n2)cc1 [Example 9],<23 % Qh,73 nM,5 % Qh
CN1C(=O)COc2ncn(Cc3nnn(C[C@H](O)c4cc5cc(F)ccc5o4)n3)c(=O)c21 [Example 6],<23 % Qh,45 nM,13 % Qh
C[C@H]1Oc2ncn(Cc3nnn(C[C@H](O)c4ccc(Cl)cc4)n3)c(=O)c2N(C)C1=O [Example 23],25 % Qh,52 nM,36 % Qh
COc1ccc([C@@H](O)Cn2nnc(Cn3cnc4c(c3=O)N(C)C(=O)CO4)n2)cc1 [Example 17],<23 % Qh,248 nM,13 % Qh
CN1C(=O)COc2ncn(Cc3nnn(C[C@H](O)c4cc(Cl)c(Cl)s4)n3)c(=O)c21 [Example 5],<23 % Qh,39 nM,29 % Qh
CN1C(=O)COc2ncn(Cc3nnn(C[C@H](O)c4ccc5cc(C#N)oc5c4)n3)c(=O)c21 [Example 19],<23 % Qh,214 nM,19 % Qh
CN1C(=O)COc2ncn(Cc3nnn(C[C@H](O)c4cc5cc(Cl)c(F)cc5o4)n3)c(=O)c21 [Example 11],34 % Qh,81 nM,29 % Qh
CN1C(=O)COc2ncn(Cc3nnn(C[C@H](O)c4cc5cc(F)c(Cl)cc5o4)n3)c(=O)c21 [Example 15],26 % Qh,227 nM,29 % Qh
CN1C(=O)COc2ncn(Cc3nnn(C[C@H](O)c4ccc5c(c4)OCO5)n3)c(=O)c21 [Example 14],<23 % Qh,191 nM,5 % Qh
CN1C(=O)COc2ncn(Cc3nnn(C[C@H](O)c4ccc(Cl)s4)n3)c(=O)c21 [Example 10],<23 % Qh,80 nM,<4 % Qh
CN1C(=O)CSc2ncn(Cc3nnn(C[C@H](O)c4ccc(Cl)cc4)n3)c(=O)c21 [Example 21],<23 % Qh,155 nM,6 % Qh
CN1C(=O)C(F)(F)Oc2ncn(Cc3nnn(C[C@H](O)c4ccc(Cl)cc4)n3)c(=O)c21 [Example 22],35 % Qh,74 nM,12 % Qh
CN1C(=O)COc2ncn(Cc3nnn(C[C@H](O)c4cc5cc(F)c(F)cc5o4)n3)c(=O)c21 [Example 7],<23 % Qh,60 nM,21 % Qh
CN1C(=O)COc2ncn(Cc3nnn(C[C@H](O)c4cc5ccc(F)cc5s4)n3)c(=O)c21 [Example 2],<23 % Qh,15 nM,16 % Qh
